In the supplement of paper PMC10307832:

Compound: c1ccc2c(CCNc3ccc(Nc4ccncc4)cc3)c[nH]c2c1 [Serdemetan] + O=C(c1cc(Cc2n[nH]c(=O)c3ccccc23)ccc1F)N1CCN(C(=O)C2CC2)CC1 [Olaparib] (partner 8 µM)
Experiment: relative viability (nuclei count vs DMSO), 5 days (fraction); higher = more cells survive
Conditions: first compound 4 µM
In short: (§1)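 Each reported value is a median over duplicate plates. It expresses relative viability: treated-well nuclei count divided by vehicle-well nuclei count. Lung cancer cell lines in 1536-well plates were dosed by pin tool a day after seeding, alone with one drug or with a fixed anchor-drug dose plus five library-drug doses (not always all listed) in √10 steps, and nuclei were counted after 5 days.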

Cell Line | relative viability
LCLC-97TM1 | 0.237
NCI-H2009 | 0.497
A-427 | 0.643
NCI-H441 | 0.281
NCI-H661 | 0.558
NCI-H1734 | 0.149
NCI-H460 | 0.148
NCI-H2347 | 0.439
SK-LU-1 | 0.365
NCI-H1395 | 0.399
201T | 0.492
NCI-H1915 | 0.24
HCC-827 | 0.306
LXF-289 | 0.388
NCI-H23 | 0.231
NCI-H1299 | 0.57
NCI-H647 | 0.165

Compound: c1ccc2c(CCNc3ccc(Nc4ccncc4)cc3)c[nH]c2c1 [Serdemetan] + CC(=O)c1c(C)c2cnc(Nc3ccc(N4CCNCC4)cn3)nc2n(C2CCCC2)c1=O [Palbociclib] (partner 0.5 µM)
Experiment: as above
Conditions: first compound 0.04 µM
In short: as §1

Cell Line | relative viability
NCI-H522 | 1.01
NCI-H727 | 0.351
NCI-H1650 | 0.318
NCI-H1993 | 0.64
SW 1573 | 0.446
NCI-H838 | 0.212
LCLC-103H | 0.479
NCI-H520 | 0.261
NCI-H2126 | 0.356
EMC-BAC-2 | 0.508
NCI-H2085 | 0.46
HCC-366 | 0.351
NCI-H1666 | 0.645
LK-2 | 0.69
NCI-H2087 | 0.28
NCI-H2342 | 0.528
SK-MES-1 | 0.271
H3255 | 0.327
COR-L23 | 0.235
COR-L 105 | 0.4
LOU-NH91 | 0.518
ChaGo-K-1 | 0.864
NCI-H2170 | 0.362
NCI-H2405 | 0.479

Cell Line | relative viability
HOP-62 | 0.466
HCC-44 | 0.927
SW 900 | 0.615
LU99A | 0.431
BEN | 0.513
HARA | 0.269
HCC-78 | 0.449
NCI-H322M | 0.491
LCLC-97TM1 | 0.228
NCI-H2009 | 0.238
A-427 | 0.533
NCI-H441 | 0.206
NCI-H661 | 0.387
NCI-H1734 | 0.296
NCI-H460 | 0.166
NCI-H2347 | 0.448
SK-LU-1 | 0.37
NCI-H1395 | 0.605
201T | 0.367
NCI-H1915 | 0.483
HCC-827 | 0.454
LXF-289 | 0.544
NCI-H23 | 0.474
NCI-H647 | 0.374

Same assay, conditions: first compound 0.1265 µM

Cell Line | relative viability
NCI-H522 | 0.954
NCI-H727 | 0.638
NCI-H1650 | 0.275
NCI-H1993 | 0.603
SW 1573 | 0.362
NCI-H838 | 0.221
LCLC-103H | 0.474
NCI-H520 | 0.215
NCI-H2126 | 0.379
EMC-BAC-2 | 0.523
NCI-H2085 | 0.457
HCC-366 | 0.281
NCI-H1666 | 0.655
LK-2 | 0.704
NCI-H2087 | 0.255
NCI-H2342 | 0.494
SK-MES-1 | 0.309
H3255 | 0.333
COR-L23 | 0.3
COR-L 105 | 0.403
LOU-NH91 | 0.515
ChaGo-K-1 | 0.746
NCI-H2170 | 0.428
NCI-H2405 | 0.515
HOP-62 | 0.469

Cell Line | relative viability
HCC-44 | 0.93
SW 900 | 0.58
LU99A | 0.371
BEN | 0.494
HARA | 0.264
NCI-H1648 | 0.233
HCC-78 | 0.391
NCI-H322M | 0.488
LCLC-97TM1 | 0.224
NCI-H2009 | 0.227
A-427 | 0.497
NCI-H441 | 0.212
NCI-H661 | 0.416
NCI-H1734 | 0.23
NCI-H460 | 0.175
NCI-H2347 | 0.367
SK-LU-1 | 0.393
NCI-H1395 | 0.643
201T | 0.353
NCI-H1915 | 0.52
HCC-827 | 0.448
LXF-289 | 0.542
NCI-H23 | 0.472
NCI-H647 | 0.332

Same assay, conditions: first compound 0.4 µM

Cell Line | relative viability
NCI-H522 | 0.899
NCI-H727 | 0.604
NCI-H1650 | 0.282
NCI-H1993 | 0.736
SW 1573 | 0.444
NCI-H838 | 0.243
LCLC-103H | 0.453
NCI-H520 | 0.252
NCI-H2126 | 0.349
EMC-BAC-2 | 0.493
NCI-H2085 | 0.466
HCC-366 | 0.0795
NCI-H1666 | 0.63
LK-2 | 0.778
NCI-H2087 | 0.236
NCI-H2342 | 0.508
SK-MES-1 | 0.285
H3255 | 0.346
COR-L23 | 0.349
COR-L 105 | 0.359
ChaGo-K-1 | 0.488
NCI-H2170 | 0.411
NCI-H2405 | 0.549
HOP-62 | 0.545

Cell Line | relative viability
HCC-44 | 0.953
SW 900 | 0.59
LU99A | 0.308
BEN | 0.504
HARA | 0.228
NCI-H1648 | 0.242
HCC-78 | 0.494
NCI-H322M | 0.474
LCLC-97TM1 | 0.22
NCI-H2009 | 0.258
A-427 | 0.525
NCI-H441 | 0.18
NCI-H661 | 0.411
NCI-H1734 | 0.229
NCI-H460 | 0.0992
NCI-H2347 | 0.403
SK-LU-1 | 0.365
NCI-H1395 | 0.626
201T | 0.341
NCI-H1915 | 0.482
LXF-289 | 0.527
NCI-H23 | 0.461
NCI-H647 | 0.528

Same assay, conditions: first compound 1.265 µM

Cell Line | relative viability
NCI-H522 | 0.681
NCI-H727 | 0.722
NCI-H1650 | 0.257
NCI-H1993 | 0.699
SW 1573 | 0.343
NCI-H838 | 0.232
LCLC-103H | 0.389
NCI-H520 | 0.179
NCI-H2126 | 0.329
EMC-BAC-2 | 0.479
NCI-H2085 | 0.382
HCC-366 | 0.0413
LK-2 | 0.517
NCI-H2087 | 0.147
NCI-H2342 | 0.481
SK-MES-1 | 0.302
H3255 | 0.286
COR-L23 | 0.213
COR-L 105 | 0.297
ChaGo-K-1 | 0.271
NCI-H2170 | 0.301
NCI-H2405 | 0.466
HOP-62 | 0.3

Cell Line | relative viability
HCC-44 | 0.92
SW 900 | 0.451
LU99A | 0.203
BEN | 0.365
HARA | 0.236
NCI-H1648 | 0.219
HCC-78 | 0.437
NCI-H322M | 0.327
LCLC-97TM1 | 0.134
NCI-H2009 | 0.162
A-427 | 0.462
NCI-H441 | 0.147
NCI-H661 | 0.382
NCI-H1734 | 0.166
NCI-H460 | 0.0798
NCI-H2347 | 0.358
SK-LU-1 | 0.319
NCI-H1395 | 0.555
201T | 0.33
NCI-H1915 | 0.434
HCC-827 | 0.412
LXF-289 | 0.524
NCI-H647 | 0.322

Same assay, conditions: first compound 4 µM

Cell Line | relative viability
NCI-H522 | 0.856
NCI-H727 | 0.644
NCI-H1650 | 0.262
NCI-H1993 | 0.569
SW 1573 | 0.234
NCI-H838 | 0.23
LCLC-103H | 0.419
NCI-H520 | 0.193
NCI-H2126 | 0.354
EMC-BAC-2 | 0.463
NCI-H2085 | 0.342
HCC-366 | 0.0782
NCI-H1666 | 0.66
LK-2 | 0.496
NCI-H2087 | 0.215
NCI-H2342 | 0.489
SK-MES-1 | 0.325
H3255 | 0.342
COR-L23 | 0.236
COR-L 105 | 0.411
LOU-NH91 | 0.563
ChaGo-K-1 | 0.296
NCI-H2170 | 0.382
NCI-H2405 | 0.52
HOP-62 | 0.209

Cell Line | relative viability
HCC-44 | 0.922
SW 900 | 0.361
LU99A | 0.22
BEN | 0.449
HARA | 0.223
NCI-H1648 | 0.212
HCC-78 | 0.47
NCI-H322M | 0.463
LCLC-97TM1 | 0.16
NCI-H2009 | 0.193
A-427 | 0.444
NCI-H441 | 0.225
NCI-H661 | 0.393
NCI-H1734 | 0.212
NCI-H460 | 0.0544
NCI-H2347 | 0.406
SK-LU-1 | 0.346
NCI-H1395 | 0.436
201T | 0.327
NCI-H1915 | 0.39
HCC-827 | 0.303
LXF-289 | 0.381
NCI-H23 | 0.437
NCI-H647 | 0.243
